Results: publication PMC10747733, “N-Substituted 2-(Benzenosulfonyl)-1-Carbotioamide Derivatives Exert Antimicrobial and Cytotoxic Effects via Aldehyde Dehydrogenase Pathway: Synthesis, In Silico and In Vitro Studies” (Pharmaceuticals, 2023)
≈ marks a conversion by molar mass, not a printed value.

What was measured:
Assay type in all cases: cell-based
[1] = tested on: Candida albicans ATCC 10231; assay: Broth microdilution antimicrobial activity
Source text: (§1) Reference strains of microorganisms that came from American Type Culture Collection (ATCC) (Manassas, VA, USA) were used for this study. The representative Gram-positive bacteria were as follows: Staphylococcus aureus ATCC 25923, Staphylococcus aureus ATCC 29213, Staphylococcus aureus ATCC 43300, Staphylococcus epidermidis ATCC 12228, Enterococcus faecalis ATCC 29212, Micrococcus luteus ATCC 10240, Bacillus subtilis ATCC 6633 and Bacillus cereus ATCC 10876. While, those of Gram-negative bacteria were as follows: Bordetella bronchiseptica ATCC 4617, Escherichia coli ATCC 25922, Klebsiella pneumoniae ATCC 13883, Proteus mirabilis ATCC 12453, Salmonella Typhimurium ATCC 14028 and Pseudomonas aeruginosa ATCC 9027. Moreover, the following fungi belonging to yeasts were used: Candida albicans ATCC 10231, Candida albicans ATCC 2091, Candida parapsilosis ATCC 22019, Candida glabrata ATCC 90030 and Candida krusei ATCC 14243.
(§2) The new compounds WZ1–WZ4 were assayed for both antibacterial and antifungal activity using the broth microdilution method in accordance with the European Committee on Antimicrobial Susceptibility Testing (EUCAST) and Clinical and Laboratory Standards Institute (CLSI) guidelines. The microorganisms were grown at 35 °C for 18–24 h on appropriate media (nutrient agar and Sabouraud for bacteria and fungi, respectively) (BioMaxima S.A., Lublin, Poland). Next, microbial suspensions with an optical density of 0.5 McFarland standard scale (in sterile 0.85% NaCl) were prepared. In turn, the tested compounds were initially diluted at 50 mg/mL in dimethyl sulfoxide (DMSO) and the broth microdilution method was used to assess their minimum inhibitory concentrations (MICs). For these studies, selective broth Mueller-Hinton (MH) (BioMaxima S.A., Lublin, Poland) and RPMI (Roswell Park Memorial Institute) 1640 with MOPS (3-(N-Morpholino)propanesulfonic acid) (Sigma-Aldrich Chemicals, St. Louis, MO, USA) were used for bacteria and fungi, respectively. The antimicrobial effect of compounds WZ1–WZ4 was determined in the concentration range from 2000 to 0.98 µg/mL.
(§3) Then, the microbial suspensions were introduced into each well of the microplate and incubated for 18–24 h at 35 °C. […] The reference drugs ciprofloxacin or vancomycin (against bacteria) and nystatin (against fungi) (Sigma-Aldrich Chemicals, St. Louis, MO, USA) were also used. Next, the values of the minimum bactericidal concentration (MBC) and minimum fungicidal concentration (MFC) of WZ1–WZ4 were assessed. For this purpose, the cultures from each MIC determination well were transferred to a suitable solid medium and incubated under appropriate conditions. The lowest concentrations of compounds without microbial growth were read as MBC or MFC. The studies were performed in triplicate and representative data were gathered.
(§4) In turn, the MBC/MIC or MFC/MIC ratios were used to assess bactericidal/fungicidal (MBC/MIC or MFC/MIC ≤ 4) and bacteriostatic/fungistatic (MBC/MIC or MFC/MIC > 4) effect of these compounds [93].

[2] = tested on: Candida albicans ATCC 2091; assay: Broth microdilution antimicrobial activity
Source text: as §1, §2, §3, §4

[3] = tested on: Candida glabrata ATCC 90030; assay: Broth microdilution antimicrobial activity
Source text: as §1, §2, §3, §4

[4] = tested on: Candida krusei ATCC 14243; assay: Broth microdilution antimicrobial activity
Source text: as §1, §2, §3, §4

[5] = tested on: Candida parapsilosis ATCC 22019; assay: Broth microdilution antimicrobial activity
Source text: as §1, §2, §3, §4

[6] = tested on: Enterococcus faecalis ATCC 29212; assay: Broth microdilution antimicrobial activity; conditions: Enterococcus faecalis ATCC 29212
Source text: as §1, §2, §3, §4

[7] = tested on: Erythrocytes from fresh sheep blood; assay: in vitro
Method: The toxicity of WZ1–WZ4 compounds towards red blood cells was tested using the erythrocyte lysis assay (ELA). Erythrocytes from fresh sheep blood (BioMaxima S.A., Poland) were centrifuged and washed with 0.85% NaCl. Next, 100 μL of a 2% suspension of red blood cells in physiological saline was added to the wells of microtiter plate. The double dilutions of compounds WZ1–WZ4 were prepared in the range of 2000–15.62 μg/mL. Appropriate controls were used to assess the hemolytic potential of tested compounds, i.e., 100% lysis of erythrocytes using 4% Triton X-100 (Pol-Aura, Różnowo, Poland) and 0% lysis in saline solution. Next, all sample plates were incubated (1 h at 37 °C), centrifuged for 10 min to separate unlysed red blood cells, and the supernatant was placed in a new plate. The ELA is a biological test by which the lytic response can be measured spectrophotometrically (at a wavelength of 450 nm) by the amount of hemoglobin released. The hemolysis percentage was calculated according to the following equation:(1) % Hemolysis = A450 of test compound treated sample − A450 of buffer treated sample/A450 of 4% Triton X100 treated samples − A450 of buffer treated sample × 100

[8] = tested on: Bacillus cereus ATCC 10876; assay: Broth microdilution antimicrobial activity
Source text: as §1, §2, §3, §4

[9] = tested on: Bacillus subtilis ATCC 6633; assay: Broth microdilution antimicrobial activity
Source text: as §1, §2, §3, §4

[10] = tested on: Bordetella bronchiseptica ATCC 4617; assay: Broth microdilution antimicrobial activity
Source text: as §1, §2, §3, §4

[11] = tested on: Escherichia coli ATCC 25922; assay: Broth microdilution antimicrobial activity
Source text: as §1, §2, §3, §4

[12] = tested on: Klebsiella pneumoniae ATCC 13883; assay: Broth microdilution antimicrobial activity
Source text: as §1, §2, §3, §4

[13] = tested on: Micrococcus luteus ATCC 10240; assay: Broth microdilution antimicrobial activity
Source text: as §1, §2, §3, §4

[14] = tested on: Proteus mirabilis ATCC 12453; assay: Broth microdilution antimicrobial activity
Source text: as §1, §2, §3, §4

[15] = tested on: Pseudomonas aeruginosa ATCC 9027; assay: Broth microdilution antimicrobial activity
Source text: as §1, §2, §3, §4

[16] = tested on: Salmonella Typhimurium ATCC 14028; assay: Broth microdilution antimicrobial activity
Source text: as §1, §2, §3, §4

[17] = tested on: Staphylococcus aureus ATCC 25923; assay: Broth microdilution antimicrobial activity
Source text: as §1, §2, §3, §4

[18] = tested on: Staphylococcus aureus ATCC 29213; assay: Broth microdilution antimicrobial activity; conditions: Staphylococcus aureus ATCC 29213
Source text: as §1, §2, §3, §4

[19] = tested on: Staphylococcus aureus ATCC 43300; assay: Broth microdilution antimicrobial activity; conditions: Staphylococcus aureus ATCC 43300
Source text: as §1, §2, §3, §4

[20] = tested on: Staphylococcus epidermidis ATCC 12228; assay: Broth microdilution antimicrobial activity
Source text: as §1, §2, §3, §4

Q: With `C[C@@H]1[C@H](O)[C@@H](C)/C=C/C=C/CC/C=C/C=C/C=C/C=C/C(O[C@H]2O[C@H](C)[C@@H](O)[C@H](N)[C@@H]2O)CC2O[C@](O)(CC(O)C(O)CCC(O)CC(O)CC(O)CC(=O)O[C@H]1C)CC(O)C2C(=O)O` (stereo partly shown) [NY, nystatin, reference compound] as the molecule, how does the MFC [1] read?
A: 0.48 µg/mL (≈ 0.518 µM)

Q: And the MFC/MIC [1]?
A: 1

Q: What about the MIC [1] of the same molecule?
A: 0.48 µg/mL (≈ 0.518 µM)

Q: And the MFC [2]?
A: 0.24 µg/mL (≈ 0.259 µM)

Q: What about the MFC/MIC [2] of the same molecule?
A: 1

Q: What about the MIC [2] of the same molecule?
A: 0.24 µg/mL (≈ 0.259 µM)

Q: What about the MFC [3] of the same molecule?
A: 0.48 µg/mL (≈ 0.518 µM)

Q: And the MFC/MIC [3]?
A: 2

Q: And the MIC [3]?
A: 0.24 µg/mL (≈ 0.259 µM)

Q: And the MFC [4]?
A: 0.24 µg/mL (≈ 0.259 µM)

Q: What about the MFC/MIC [4] of the same molecule?
A: 1

Q: And the MIC [4]?
A: 0.24 µg/mL (≈ 0.259 µM)

Q: And the MFC [5]?
A: 0.48 µg/mL (≈ 0.518 µM)

Q: What about the MFC/MIC [5] of the same molecule?
A: 2

Q: What about the MIC [5] of the same molecule?
A: 0.24 µg/mL (≈ 0.259 µM)

Q: What does the source list for `CN[C@H](CC(C)C)C(=O)N[C@H]1C(=O)N[C@@H](CC(N)=O)C(=O)N[C@H]2C(=O)N[C@H]3C(=O)N[C@H](C(=O)N[C@H](C(=O)O)c4cc(O)cc(O)c4-c4cc3ccc4O)[C@H](O)c3ccc(c(Cl)c3)Oc3cc2cc(c3O[C@@H]2O[C@H](CO)[C@@H](O)[C@H](O)[C@H]2O[C@H]2C[C@](C)(N)[C@H](O)[C@H](C)O2)Oc2ccc(cc2Cl)[C@H]1O` [VA, vancomycin, reference compound]?
A: MBC [6]: 1.95 µg/mL (≈ 1.35 µM); MBC/MIC [6]: 2; MIC [6]: 0.98 µg/mL (≈ 0.676 µM)

Q: Triton X-100 [reference compound] was tested. Which erythrocyte lysis [7] did it give?
A: 100%

Q: Which MBC/MIC [8] does the source give for `O=C(O)c1cn(C2CC2)c2cc(N3CCNCC3)c(F)cc2c1=O` [CIP, ciprofloxacin, reference compound] here?
A: 2

Q: And the MBC ([8]; ATCC10876)?
A: 0.12 µg/mL (≈ 0.362 µM)

Q: What about the MIC ([8]; ATCC10876) of the same molecule?
A: 0.06 µg/mL (≈ 0.181 µM)

Q: What about the MBC/MIC [9] of the same molecule?
A: 1

Q: And the MBC ([9]; ATCC6633)?
A: 0.03 µg/mL (≈ 0.0905 µM)

Q: And the MIC ([9]; ATCC6633)?
A: 0.03 µg/mL (≈ 0.0905 µM)

Q: What about the MBC/MIC [10] of the same molecule?
A: 1

Q: And the MBC ([10]; ATCC4617)?
A: 0.98 µg/mL (≈ 2.96 µM)

Q: What about the MIC ([10]; ATCC4617) of the same molecule?
A: 0.98 µg/mL (≈ 2.96 µM)

Q: And the MBC/MIC [11]?
A: 2

Q: And the MBC ([11]; ATCC25922)?
A: 0.008 µg/mL (≈ 0.0241 µM)

Q: And the MIC ([11]; ATCC25922)?
A: 0.004 µg/mL (≈ 0.0121 µM)

Q: What about the MBC/MIC [12] of the same molecule?
A: 2

Q: What about the MBC ([12]; ATCC13883) of the same molecule?
A: 0.24 µg/mL (≈ 0.724 µM)

Q: And the MIC ([12]; ATCC13883)?
A: 0.12 µg/mL (≈ 0.362 µM)

Q: What about the MBC/MIC [13] of the same molecule?
A: 2

Q: And the MBC ([13]; ATCC10240)?
A: 1.95 µg/mL (≈ 5.89 µM)

Q: What about the MIC ([13]; ATCC10240) of the same molecule?
A: 0.98 µg/mL (≈ 2.96 µM)

Q: And the MBC/MIC [14]?
A: 1

Q: And the MBC ([14]; ATCC12453)?
A: 0.03 µg/mL (≈ 0.0905 µM)

Q: What about the MIC ([14]; ATCC12453) of the same molecule?
A: 0.03 µg/mL (≈ 0.0905 µM)

Q: And the MBC/MIC [15]?
A: 2

Q: And the MBC ([15]; ATCC9027)?
A: 0.98 µg/mL (≈ 2.96 µM)

Q: What about the MIC ([15]; ATCC9027) of the same molecule?
A: 0.48 µg/mL (≈ 1.45 µM)

Q: What about the MBC/MIC [16] of the same molecule?
A: 1

Q: And the MBC ([16]; Salmonella enterica)?
A: 0.06 µg/mL (≈ 0.181 µM)

Q: And the MIC ([16]; Salmonella enterica)?
A: 0.06 µg/mL (≈ 0.181 µM)

Q: And the MBC/MIC [17]?
A: 1

Q: And the MBC ([17]; ATCC25923)?
A: 0.48 µg/mL (≈ 1.45 µM)

Q: And the MIC ([17]; ATCC25923)?
A: 0.48 µg/mL (≈ 1.45 µM)

Q: What about the MBC ([18]; ATCC29213) of the same molecule?
A: 0.48 µg/mL (≈ 1.45 µM)

Q: And the MIC ([18]; ATCC29213)?
A: 0.48 µg/mL (≈ 1.45 µM)

Q: And the MBC/MIC [18]?
A: 1

Q: And the MBC ([19]; ATCC43300)?
A: 0.24 µg/mL (≈ 0.724 µM)

Q: What about the MIC ([19]; ATCC43300) of the same molecule?
A: 0.24 µg/mL (≈ 0.724 µM)

Q: And the MBC/MIC [19]?
A: 1

Q: What about the MBC/MIC [20] of the same molecule?
A: 1

Q: And the MBC ([20]; ATCC12228)?
A: 0.12 µg/mL (≈ 0.362 µM)

Q: And the MIC ([20]; ATCC12228)?
A: 0.12 µg/mL (≈ 0.362 µM)
